According to patent publication US4081531A, “Antibiotic mimosamycin” (priority 1975, dated 1978):
Converted amounts (≈) assume the structure as drawn.

Assays:
Mucor mucedo = test: Antimicrobial spectrum (MIC); format: cell-based; conditions: Sabouraud dextrose agar, 27° C, 48 hours
gram-negative bacteria = test: Antibacterial activity against gram-negative bacteria; format: cell-based; conditions: for antibacterial activity against most gram-negative bacteria: chlorocarcins, summary of Table 5
[1] = test system: Staphylococcus aureus 209 P; test: Antimicrobial spectrum (MIC); format: cell-based; conditions: 1% glucose nutrient agar, 37° C, 24 or 48 hours
[2] = Tolerability in mice, intravenous injection; format: in vivo; conditions: for toxicity: mice
Experimental: (§1) Remarks: Nutrient agar, 37° C, 48 hours for m. smegmatis. Sauton's liquid medium, 37° C, 4 weeks for other 3 strains. The strains SMR and Matsudo resistant to streptomycin at 1000 μg/ml or higher. Mice (18 - 20 g.) tolerated intravenous injection of 50 mg./kg. of mimosamycin.
(A) and 250 mg./kg.(B and C), respectively.

[3] = test system: Staphylococcus aureus Smith; test: Antimicrobial spectrum (MIC); format: cell-based; conditions: 1% glucose nutrient agar, 37° C, 24 or 48 hours
[4] = test system: Bacillus subtilis PCI 219; test: Antimicrobial spectrum (MIC); format: cell-based; conditions: 1% glucose nutrient agar, 37° C, 24 or 48 hours
[5] = test system: Streptococcus hemolyticus Coock; test: Antimicrobial spectrum (MIC); format: cell-based; conditions: blood agar, 37° C, 24 or 48 hours
Mycobacterium phlei = test: Antimicrobial spectrum (MIC); format: cell-based; conditions: 3% glycerin nutrient agar, 37° C, 24 or 48 hours
Staphylococcus citreus = test: Antimicrobial spectrum (MIC); format: cell-based; conditions: 1% glucose nutrient agar, 37° C, 24 or 48 hours
Aspergillus niger = test: Antimicrobial spectrum (MIC); format: cell-based; conditions: Sabouraud dextrose agar, 27° C, 48 hours
Escherichia coli = test: Antimicrobial spectrum (MIC); format: cell-based; conditions: 1% glucose nutrient agar, 37° C, 24 or 48 hours
Mycobacterium avium = test: Antimicrobial spectrum (MIC); format: cell-based; conditions: 3% glycerin nutrient agar, 37° C, 24 or 48 hours
Klebsiella pneumonaie = test: Antimicrobial spectrum (MIC); format: cell-based; conditions: 1% glucose nutrient agar, 37° C, 24 or 48 hours
Saccharomyces cerevisiae = test: Antimicrobial spectrum (MIC); format: cell-based; conditions: Sabouraud dextrose agar, 27° C, 48 hours
[6] = test system: Mycobacterium smegmatis ATCC 607; test: Antimicrobial spectrum (MIC); format: cell-based; conditions: 3% glycerin nutrient agar, 37° C, 24 or 48 hours
Bacillus cereus = test: Antimicrobial spectrum (MIC); format: cell-based; conditions: 1% glucose nutrient agar, 37° C, 24 or 48 hours
Tolura rubra = test: Antimicrobial spectrum (MIC); format: cell-based; conditions: Sabouraud dextrose agar, 27° C, 48 hours
[7] = test system: Trichophyton mentagrophytes; test: Antimicrobial spectrum (MIC); format: cell-based; conditions: Sabouraud dextrose agar, 27° C, 72 hours
Corynebacterium xerosis = test: Antimicrobial spectrum (MIC); format: cell-based; conditions: 1% glucose nutrient agar, 37° C, 24 or 48 hours
Pseudomonas aeruginosa = test: Antimicrobial spectrum (MIC); format: cell-based; conditions: 1% glucose nutrient agar, 37° C, 24 or 48 hours
Lactobacillus arabinosus = test: Antimicrobial spectrum (MIC); format: cell-based; conditions: 1% glucose nutrient agar, 37° C, 24 or 48 hours
Brucella abortus = format: cell-based; conditions: blood agar, 37° C, 24 or 48 hours
Streptococcus salivarius = test: Antimicrobial spectrum (MIC); format: cell-based; conditions: 1% glucose nutrient agar, 37° C, 24 or 48 hours
Candida albicans = test: Antimicrobial spectrum (MIC); format: cell-based; conditions: Sabouraud dextrose agar, 27° C, 48 hours
Aspergillus oryzae = test: Antimicrobial spectrum (MIC); format: cell-based; conditions: Sabouraud dextrose agar, 27° C, 48 hours
Staphylococcus albus = test: Antimicrobial spectrum (MIC); format: cell-based; conditions: 1% glucose nutrient agar, 37° C, 24 or 48 hours
Solubility = format: physicochemical
Serratia marcescens = test: Antimicrobial spectrum (MIC); format: cell-based; conditions: 1% glucose nutrient agar, 37° C, 24 or 48 hours
Penicillium glaucum = test: Antimicrobial spectrum (MIC); format: cell-based; conditions: Sabouraud dextrose agar, 27° C, 48 hours
[8] = test system: Corynebacterium diphtheriae; test: Antimicrobial spectrum (MIC); format: cell-based; conditions: 1% glucose nutrient agar, 37° C, 24 or 48 hours
Streptococcus faecalis = test: Antimicrobial spectrum (MIC); format: cell-based; conditions: 1% glucose nutrient agar, 37° C, 24 or 48 hours
Nocardia asteoides = test: Antimicrobial spectrum (MIC); format: cell-based; conditions: 37° C, 24 or 48 hours
Salmonella typhimurium = test: Antimicrobial spectrum (MIC); format: cell-based; conditions: 1% glucose nutrient agar, 37° C, 24 or 48 hours
gram-positive bacteria = test: Antibacterial activity against gram-positive bacteria; format: cell-based; conditions: for antibacterial activity against gram-positive bacteria: chlorocarcins, summary of Table 5
[9] = test system: Streptococcus hemolyticus 090R; test: Antimicrobial spectrum (MIC); format: cell-based; conditions: blood agar, 37° C, 24 or 48 hours
Shigella dysenteriae = test: Antimicrobial spectrum (MIC); format: cell-based; conditions: 1% glucose nutrient agar, 37° C, 24 or 48 hours
[10] = test system: highly streptomycin-resistant strains of human tubercle bacilli; format: cell-based; conditions: as is against normal strains of tubercle bacilli
[11] = test system: Mycobacterium smegmatis ATCC607; test: Antimicrobial activity (MIC) of mimosamycin; format: cell-based; conditions: Mycolicibacterium smegmatis, Nutrient agar, 37° C, 48 hours
Experimental: as §1

[12] = test system: Mycobacterium tuberculosis H37 RV; test: Antimicrobial activity (MIC) against tubercle bacilli; format: cell-based; conditions: H37RV, 672 h, Sauton's liquid medium, 37° C, 4 weeks
[13] = test system: Mycobacterium bovis No. 10; test: microbe, parasite or virus in culture; format: cell-based; conditions: Mycobacterium tuberculosis variant bovis, NO.10, 672 h
acid-fast bacteria = test: Activity against acid-fast bacteria; format: cell-based
tubercle bacilli = test: Effect against tubercle bacilli; format: cell-based
fungi = test: Activity against fungi; format: cell-based; conditions: at 50 μg/ml
[14] = Lower alcohols, chloroform, esters, acetone, benzene, ethyl ether

chlorocarcin B
MIC (Mucor mucedo): > 100 µg/mL | antibacterial activity against most gram-negative bacteria (gram-negative bacteria): little antibacterial activity | MIC [1]: 12.5 µg/mL | toxicity [2]: relatively low toxicity | MIC [3]: 12.5 µg/mL | MIC [4]: 25 µg/mL | MIC [5]: 6.25 µg/mL | MIC (Mycobacterium phlei): > 100 µg/mL | MIC (Staphylococcus citreus): 25 µg/mL | MIC (Aspergillus niger): > 100 µg/mL | MIC (Escherichia coli): > 100 µg/mL | MIC (Mycobacterium avium): > 100 µg/mL | MIC (Klebsiella pneumonaie): 50 µg/mL | MIC (Saccharomyces cerevisiae): > 100 µg/mL | MIC [6]: > 100 µg/mL | MIC (Bacillus cereus): 50 µg/mL | MIC (Tolura rubra): > 100 µg/mL | MIC [7]: > 100 µg/mL | MIC (Corynebacterium xerosis): 0.39 µg/mL | MIC (Pseudomonas aeruginosa): > 100 µg/mL | MIC (Lactobacillus arabinosus): 50 µg/mL | MIC (Brucella abortus): > 100 µg/mL | MIC (Streptococcus salivarius): 50 µg/mL | MIC (Candida albicans): > 100 µg/mL | MIC (Aspergillus oryzae): > 100 µg/mL | MIC (Staphylococcus albus): 50 µg/mL | Solubility (Solubility; [14]): Easily soluble | Solubility (Solubility; Water): Insoluble | Solubility (Solubility; n-hexane): Sparingly soluble | MIC (Serratia marcescens): > 100 µg/mL | MIC (Penicillium glaucum): > 100 µg/mL | MIC [8]: 0.05 µg/mL | MIC (Streptococcus faecalis): > 100 µg/mL | MIC (Nocardia asteoides): 50 µg/mL | MIC (Salmonella typhimurium): > 100 µg/mL | antibacterial activity against gram-positive bacteria (gram-positive bacteria): mainly show an antibacterial activity | MIC [9]: 100 µg/mL | MIC (Shigella dysenteriae): > 100 µg/mL

chlorocarcin C
MIC (Mucor mucedo): > 100 µg/mL | antibacterial activity against most gram-negative bacteria (gram-negative bacteria): little antibacterial activity | MIC [1]: 12.5 µg/mL | toxicity [2]: relatively low toxicity | MIC [3]: 12.5 µg/mL | MIC [4]: 25 µg/mL | MIC [5]: 6.25 µg/mL | MIC (Mycobacterium phlei): > 100 µg/mL | MIC (Staphylococcus citreus): 25 µg/mL | MIC (Aspergillus niger): > 100 µg/mL | MIC (Escherichia coli): > 100 µg/mL | MIC (Mycobacterium avium): > 100 µg/mL | MIC (Klebsiella pneumonaie): 50 µg/mL | MIC (Saccharomyces cerevisiae): > 100 µg/mL | MIC [6]: > 100 µg/mL | MIC (Bacillus cereus): 50 µg/mL | MIC (Tolura rubra): > 100 µg/mL | MIC [7]: > 100 µg/mL | MIC (Corynebacterium xerosis): 0.39 µg/mL | MIC (Pseudomonas aeruginosa): > 100 µg/mL | MIC (Lactobacillus arabinosus): 50 µg/mL | MIC (Brucella abortus): > 100 µg/mL | MIC (Streptococcus salivarius): 50 µg/mL | MIC (Candida albicans): > 100 µg/mL | MIC (Aspergillus oryzae): > 100 µg/mL | MIC (Staphylococcus albus): 50 µg/mL | Solubility (Solubility; [14]): Easily soluble | Solubility (Solubility; Water): Insoluble | Solubility (Solubility; n-hexane): Sparingly soluble | MIC (Serratia marcescens): > 100 µg/mL | MIC (Penicillium glaucum): > 100 µg/mL | MIC [8]: 0.05 µg/mL | MIC (Streptococcus faecalis): > 100 µg/mL | MIC (Nocardia asteoides): 50 µg/mL | MIC (Salmonella typhimurium): > 100 µg/mL | antibacterial activity against gram-positive bacteria (gram-positive bacteria): mainly show an antibacterial activity | MIC [9]: 100 µg/mL | MIC (Shigella dysenteriae): > 100 µg/mL

chlorocarcin A
MIC (Mucor mucedo): > 100 µg/mL | antibacterial activity against most gram-negative bacteria (gram-negative bacteria): little antibacterial activity | MIC [1]: 0.1 µg/mL | toxicity [2]: relatively low toxicity | MIC [3]: 0.02 µg/mL | MIC [4]: 0.2 µg/mL | MIC [5]: 6.25 µg/mL | MIC (Mycobacterium phlei): 100 µg/mL | MIC (Staphylococcus citreus): 0.1 µg/mL | MIC (Aspergillus niger): > 100 µg/mL | MIC (Escherichia coli): > 100 µg/mL | MIC (Mycobacterium avium): 100 µg/mL | MIC (Klebsiella pneumonaie): 100 µg/mL | MIC (Saccharomyces cerevisiae): > 100 µg/mL | MIC [6]: 100 µg/mL | MIC (Bacillus cereus): 50 µg/mL | MIC (Tolura rubra): > 100 µg/mL | MIC [7]: 100 µg/mL | MIC (Corynebacterium xerosis): 0.003 µg/mL | MIC (Pseudomonas aeruginosa): > 100 µg/mL | MIC (Lactobacillus arabinosus): 12.5 µg/mL | MIC (Brucella abortus): > 100 µg/mL | MIC (Streptococcus salivarius): 6.25 µg/mL | MIC (Candida albicans): > 100 µg/mL | MIC (Aspergillus oryzae): > 100 µg/mL | MIC (Staphylococcus albus): 0.1 µg/mL | Solubility (Solubility; Ethyl ether, esters, chloroform, acetone, alcohols, 0.1N HCl): Easily soluble | Solubility (Solubility; Water): Insoluble | Solubility (Solubility; n-hexane, 0.1N NaOH): Sparingly soluble | MIC (Serratia marcescens): > 100 µg/mL | MIC (Penicillium glaucum): > 100 µg/mL | MIC [8]: 0.003 µg/mL | MIC (Streptococcus faecalis): 25 µg/mL | MIC (Nocardia asteoides): 25 µg/mL | MIC (Salmonella typhimurium): > 100 µg/mL | antibacterial activity against gram-positive bacteria (gram-positive bacteria): mainly show an antibacterial activity | MIC [9]: 50 µg/mL | MIC (Shigella dysenteriae): > 100 µg/mL

COC1=C(C)C(=O)c2cc(=O)n(C)cc2C1=O [mimosamycin]
activity against gram-negative bacteria (gram-negative bacteria; at 50 μg/ml): non-effective | activity against highly streptomycin-resistant strains of human tubercle bacilli [10]: effective | MTD ([2]; mouse, in vivo, mice 18 - 20 g, read-out: tolerated dose): 50 mg/kg | MIC [11]: 25 µg/mL (≈ 107 µM) | MIC [12]: 1.56 µg/mL (≈ 6.69 µM) | MIC [13]: 6.25 µg/mL (≈ 26.8 µM) | activity against acid-fast bacteria (acid-fast bacteria): active | effect against tubercle bacilli (tubercle bacilli): specifically effective | Solubility (Solubility; Ethyl ether, n-hexane): Sparingly soluble | Solubility (Solubility; Methanol, ethanol, chloroform, esters, acetone): Easily soluble | Solubility (Solubility; Water): Insoluble | activity against gram-positive bacteria (gram-positive bacteria; mimosamycin): active against gram-positive bacteria to a certain extent | activity against fungi (fungi): non-effective
